# Where “and” joins values, the source holds several entries; their conditions need not be identical. Identical values can stand only once. Counter-ions that a name gives are not always drawn.
# Key:
# [1] = test system: male Swiss-Webster mice; assay: Analgesic efficacy in mouse model: electrical stimulation of abdominal skin, vocalization threshold, analgesia score and duration; type: in vivo; set-up: key to analgesia score, 15 min / analgesia score, 30 min / analgesia score, 45 min / analgesia score, 60 min / analgesia score, 75 min / analgesia score, 90 min / analgesia score, 105 min / analgesia score, 120 min / analgesia score, 135 min: 1 = analgesia; 0 = no analgesia; 10 = partial analgesia
# Description: Analgesic efficacy in male Swiss Webster mouse model: Testing for analgesia was done by electrical stimulation of mice skin as described elsewhere (G. J. Grant et al, Pharmaceutical Research, 18, no 3, 336-343, 2001). Pain as electrical stimulation at the desired intensity was inflicted to the skin of shaved mice abdomen. The current generator (model S48, Grass Instruments (W. Warwick, R.I. USA) was used. Mice (male Swiss-Webster, 26±3 gr (n=7 per group) were used. The mice were shaved the hair overlying the abdomen and tested prior to injection to determine the Individual vocalization threshold of each mice. Than the mice were injected with (0.3-0.4 ml of one of the following: free bupivacaine, or LMVV-BUP or various LMVV entrapped in Ca-alginate or chitosan-oxalate cross linked hydrogels through 30G needle. The analgesia duration was than followed as specified in the experiment itself. All experiments were approved and ratified by the HUJI ethic committee.
# Analysis of the in vivo mice analgesia: A numerical score to the spreadsheet was introduced for the evaluation of the analgesic effect of various liposome preparations performance in vivo: For each time period (e.g. 4 hrs, 8 hrs etc) a numeric value to each mouse in the experiment was given. If the anesthesia was complete the numeric value given was 1.0; when analgesia was partial (incomplete) it received the numeric value of 10.0 in the Table 1 and in other Tables a score of 0.5 and for no anesthesia the numeric score was 0. The mean for each subgroup was calculated separately (i.e. 1% 300 μl, 2%[…]).
# Testing for analgesia was done by electrical stimulation of the skin directly overlying the abdomen at the site of injection using a current generator (model S48, Grass Instruments) as described in Grant et al 2001. (G. J. Grant et al, pharmaceutical research, vol 18, no 3, 336-343, 2001), and in Methods above.
# Mice (male Swiss-Webster 26±3 gr) were tested prior to injection to determine the vocalization threshold than were injected with liposomal BUP or free BUP than followed by determination of analgesia duration (The duration of the main in vivo screening study was 2 days and started after a preliminary study using two different injection volumes of formulation #4 (referred to as the PILOT in Table 9A) was performed. […]
# Testing for analgesia was performed by electrical stimulation of mice skin as described elsewhere (G. J. Grant et al, Pharmaceutical Research, 18, no 3, 336-343, 2001). Pain by electrical stimulation at the desired intensity was applied to the skin of shaved mice abdomen. The current generator (model S48, Grass Instruments (W. Warwick, R.I. USA) was used. Mice (male Swiss-Webster, 26±3 gr (n=8 per group) were used. The mice were shaved the hair overlying the abdomen and tested prior to injection to determine the Individual vocalization threshold of each mice. Than the mice were injected through 30G needle with 0.25 ml of one of the following formulation: • 1—Alginate beads containing LMVV-BUP (010609), were stored at 4 c for 2 months in 0.5% bup, PH=5.5 (see B3). The external solution of the beads were removed before injection without washing them. • 2—Alginate beads containing LMVV-BUP (010609), were stored at 4 c for 2 months in 2% bup, PH=5.5 (see B3). The external solution of the beads were removed and the beads washed (2.5 ml saline×5) before injection. • 3—Alginate beads containing LMVV-BUP (010609), were stored at 4 c for 2 months in 1% bup, PH=5.5 (see B3). The external solution of the beads were removed before injection without washing them. • 4—Alginate beads containing LMVV-BUP (010609), were stored at 4 c for 2 months in saline, PH=5.5 (see B3). The external solution of the beads were removed before injection without washing them. • 5—LMVV-BUP (010609) were stored at 4 c for 2 months in saline PH=5.5. • 6—BLANK: Aginate beads containing LMVV without bup, were stored at 4 c for 2 months in saline PH=5.5. […]
# [2] = test system: male Swiss-Webster mice; settings: previously determined (Grant et al. 2004, U.S. Pat. No. 6,162,462); cited from earlier work
# [3] = cited from earlier work
# [4] = Bup Conc 0.25%, Volume 150 ul, 0.375 mg Bup, individual mice
# [5] = Bup Conc 0.25%, Volume 150 ul, 0.375 mg Bup, individual mice, hydrochloride
# [6] = Bup Conc 0.25%, Volume 300 ul, 0.75 mg Bup, individual mice
# [7] = Bup Conc 0.25%, Volume 300 ul, 0.75 mg Bup, individual mice, hydrochloride
# [8] = Bup Conc 0.50%, Volume 150 ul, 0.75 mg Bup, individual mice
# [9] = Bup Conc 0.50%, Volume 150 ul, 0.75 mg Bup, individual mice, hydrochloride
smiles,measurement,setting,value
"CCCCN1CCCCC1C(=O)Nc1c(C)cccc1C (stereo not shown) [Standard Bupivacaine, Bupivacaine hydrochloride]","analgesia score, 15 min",[1]; [4],1
same,"analgesia score, 30 min",[1]; [4],1
same,"analgesia score, 45 min",[1]; [4],1
same,"analgesia score, 90 min",[1]; [4],0
same,"analgesia score, 60 min",[1]; [5],0 (5×) and 1 (2×) and 10
same,"analgesia score, 75 min",[1]; [5],0 (7×) and 10
same,"analgesia score, 15 min",[1]; [6],1
same,"analgesia score, 30 min",[1]; [6],1
same,"analgesia score, 45 min",[1]; [6],1
same,"analgesia score, 60 min",[1]; [6],1
same,"analgesia score, 135 min",[1]; [6],0
same,"analgesia score, 75 min",[1]; [7],0 and 1 (7×)
same,"analgesia score, 90 min",[1]; [7],0 and 1 (5×) and 10 (2×)
same,"analgesia score, 105 min",[1]; [7],0 (5×) and 10 and 1 (2×)
same,"analgesia score, 120 min",[1]; [7],0 (7×) and 10
same,"analgesia score, 15 min",[1]; [8],1
same,"analgesia score, 30 min",[1]; [8],1
same,"analgesia score, 45 min",[1]; [8],1
same,"analgesia score, 105 min",[1]; [8],0
same,"analgesia score, 60 min",[1]; [9],1 (7×) and 10
same,"analgesia score, 75 min",[1]; [9],1 (6×) and 0 and 10
same,"analgesia score, 90 min",[1]; [9],0 (4×) and 10 (2×) and 1 (2×)
same,"analgesia score, 15 min","[1]; per mouse, free BUP 0.25%, 150 ul, 0.375 mg Bup, 15 min",1
same,"analgesia score, 30 min","[1]; per mouse, free BUP 0.25%, 150 ul, 0.375 mg Bup, 30 min",1
same,"analgesia score, 45 min","[1]; per mouse, free BUP 0.25%, 150 ul, 0.375 mg Bup, 45 min",1
same,"analgesia score, 60 min","[1]; per mouse, free BUP 0.25%, 150 ul, 0.375 mg Bup, 60 min, hydrochloride",0 (5×) and 1 (2×) and 10
same,"analgesia score, 75 min","[1]; per mouse, free BUP 0.25%, 150 ul, 0.375 mg Bup, 75 min, hydrochloride",0 (7×) and 10
same,"analgesia score, 90 min","[1]; per mouse, free BUP 0.25%, 150 ul, 0.375 mg Bup, 90 min",0
same,"analgesia score, 15 min","[1]; per mouse, free BUP 0.25%, 300 ul, 0.75 mg Bup, 15 min",1
same,"analgesia score, 30 min","[1]; per mouse, free BUP 0.25%, 300 ul, 0.75 mg Bup, 30 min",1
same,"analgesia score, 45 min","[1]; per mouse, free BUP 0.25%, 300 ul, 0.75 mg Bup, 45 min",1
same,"analgesia score, 60 min","[1]; per mouse, free BUP 0.25%, 300 ul, 0.75 mg Bup, 60 min",1
same,"analgesia score, 75 min","[1]; per mouse, free BUP 0.25%, 300 ul, 0.75 mg Bup, 75 min, hydrochloride",0 and 1 (7×)
same,"analgesia score, 90 min","[1]; per mouse, free BUP 0.25%, 300 ul, 0.75 mg Bup, 90 min, hydrochloride",0 and 1 (5×) and 10 (2×)
same,"analgesia score, 105 min","[1]; per mouse, free BUP 0.25%, 300 ul, 0.75 mg Bup, 105 min, hydrochloride",0 (5×) and 10 and 1 (2×)
same,"analgesia score, 120 min","[1]; per mouse, free BUP 0.25%, 300 ul, 0.75 mg Bup, 120 min, hydrochloride",0 (7×) and 10
same,"analgesia score, 135 min","[1]; per mouse, free BUP 0.25%, 300 ul, 0.75 mg Bup, 135 min",0
same,"analgesia score, 15 min","[1]; per mouse, free BUP 0.50%, 150 ul, 0.75 mg Bup, 15 min",1
same,"analgesia score, 30 min","[1]; per mouse, free BUP 0.50%, 150 ul, 0.75 mg Bup, 30 min",1
same,"analgesia score, 45 min","[1]; per mouse, free BUP 0.50%, 150 ul, 0.75 mg Bup, 45 min",1
same,"analgesia score, 60 min","[1]; per mouse, free BUP 0.50%, 150 ul, 0.75 mg Bup, 60 min, hydrochloride",1 (7×) and 10
same,"analgesia score, 75 min","[1]; per mouse, free BUP 0.50%, 150 ul, 0.75 mg Bup, 75 min, hydrochloride",1 (6×) and 0 and 10
same,"analgesia score, 90 min","[1]; per mouse, free BUP 0.50%, 150 ul, 0.75 mg Bup, 90 min, hydrochloride",0 (4×) and 10 (2×) and 1 (2×)
same,"analgesia score, 105 min","[1]; per mouse, free BUP 0.50%, 150 ul, 0.75 mg Bup, 105 min",0
same,duration of analgesic effect post injection,[2],approximately 75 minutes
same,solubility limit of bupivacaine at pH 5.5,"[3]; 25° C., pH 5.5",below 2.9%
same,solubility of bupivacaine 25° C. at pH 2.0,[3]; pH 2.0,7.5%
same,mass solubility of bupivacaine at 25° C. in pH 5,[3]; pH 5,2.9%
same,mass solubility of bupivacaine at 25° C. in pH 6,[3]; pH 6,0.55%
